Experiment [1] has as its system Calcium Ionophore Stimulated Leukotriene Formation in Human Polymorphonuclear Leukocytes. The experiment is described as follows: Calcium ionophore-induced LTB4 formation in human polymorphonuclear leukocytes (Lipoxygenase Inhibition Determination). It is filed as cell-based. Particulars: human PMNL, 15 min preincubation, calcium ionophore 8.3 μM, 10 min at 37° C., LTB4 by enzyme-linked immunoassay or HPLC, read-out: Inhibitory Potencies Against Calcium Ionophore Stimulated Leukotriene Formation in Human Polymorphonuclear Leukocytes, IC50. As to the method:
Leukotriene biosynthesis inhibitory activity of representative compounds of the present invention was evaluated in an assay involving calcium ionophore-induced LTB4 expressed in human polymorphornuclear leukocytes (PMNL). Human PMNL isolated from heparinized (20 USP units/mL) venous blood (25 mL) obtained from healthy volunteers was layered over an equal volume of Ficoll-Hypaque Mono-Poly Resolving Medium (ICN Flow, Costa Mesa, Calif.) and centrifugated at 400×g for 40 min at 20° C. The PMNL was collected, erythrocytes lysed and washed 2× and suspended at 1.0×10^7 cells/mL in Earle's balanced salt solution with 17 mM Earle's HEPES. […] Incubations were stopped with the addition of two volumes of ice-cold methanol followed by centrifuging the cell suspensions at 4° C. for 10 min at 450×g. The mount of LTB4 in the methanol extract was analyzed by enzyme-linked immunoassay or by HPLC analysis.

Experiment [2] has as its system leukotriene synthesis. As to conditions: Bioorganic and Medicinal Chemistry Letters, 1: 645-648 (1991); cited from earlier work.

This is an account of results in patent US5691351A, “Bis-(Heteroarylmethoxyphenyl)cycloalkyl carboxylates as inhibitors of leukotriene biosynthesis” (Abbott Laboratories, priority 1996, dated 1997).

One may read the IC50 as the concentration at which inhibition is half-maximal.

Structures can show the parent of a compound that is named as a salt. Where two headings read alike, the source gives them in different places.

With `O=C(O)C1CCC(c2ccc(OCc3ccc4ccccc4n3)cc2)(c2ccc(OCc3ccc4ccccc4n3)cc2)CC1` [Example 2, 4,4-bis-(4-(2-quinolylmethoxy)phenyl)cyclohexane carboxylic acid sodium salt], the IC50 in experiment [1] (sodium salt) amounted to 47 nM.

For the compound `O=C(O)CSC(CCCc1ccc(Cl)cc1)c1ccc(OCc2ccc3ccccc3n2)cc1` [L-674,636, {[4-(4-chlorophenyl)-1-[4-(2-quinolylmethoxy)phenyl]-butyl]thio}acetic acid], the “leukotriene synthesis inhibitor (in words)” value in experiment [2] was “potent and orally active leukotriene synthesis inhibitor”.

As to `O=C(O)C1CCC(c2ccc(OCc3ccc4ccccc4n3)cc2)(c2ccc(OCc3ccc4ccccc4n3)cc2)CC1` [Example 1, 4,4-bis-(4(2-quinolylmethoxy)phenyl)cyclohexane carboxylic acid], the 50% inhibitory concentration (IC50) in experiment [1] was determined as 59 nM.

On to `CC(=NOC1CCC(c2ccc(OCc3ccc4ccccc4n3)cc2)(c2ccc(OCc3ccc4ccccc4n3)cc2)CC1)C(=O)O` [Example 5, sodium salt], for which the IC50 in experiment [1] was 37 nM.
